Source: patent US20130216666A1, “CASHEW NUT SHELL LIQUID WITH IMPROVED STABILITY” (IDEMITSU KOSAN CO., LTD., priority 2010, published 2013)
Read-outs that look alike come from different tables or passages of the source.

Assays:
[1] = Inhibition of decarboxylation reaction in unheated cashew nut shell liquid formulation (silica), phosphoric acid / phosphate; assay type: physicochemical; details: 80° C.; for Anacardic Acid 15:1 Composition (%) / Anacardic Acid 15:1 concentration / Anacardic Acid 15:2 Composition (%) / Anacardic Acid 15:2 concentration / Anacardic Acid 15:3 Composition (%) / Anacardic Acid 15:3 concentration / Cardanol 15:1 Composition (%) / Cardanol 15:1 concentration / Cardanol 15:2 Composition (%) / Cardanol 15:2 concentration / Cardanol 15:3 Composition (%) / Cardanol 15:3 concentration: 10% by weight in unheated CNSL, mixed with silica; for inhibition of the decarboxylation: formulation with silica, 10% by weight, 3 days
Protocol: 10 g of silica (Sipernat 22) was placed into each of beakers. […] The sodium dihydrogen phosphate was added as an aqueous solution.

[2] = 80° C.; for Anacardic Acid 15:1 Composition (%) / Anacardic Acid 15:1 concentration / Anacardic Acid 15:2 Composition (%) / Anacardic Acid 15:2 concentration / Anacardic Acid 15:3 Composition (%) / Anacardic Acid 15:3 concentration / Cardanol 15:1 concentration / Cardanol 15:2 Composition (%) / Cardanol 15:2 concentration / Cardanol 15:3 Composition (%) / Cardanol 15:3 concentration / Cardanol 15:1 Composition (%): 10% by weight in unheated CNSL; for inhibition of the decarboxylation: 10% by weight, three days
[3] = Inhibition of decarboxylation reaction in feed; details: 10% by weight in unheated CNSL, 80° C.; for Anacardic Acid 15:1 Composition (%) / Anacardic Acid 15:1 concentration / Anacardic Acid 15:2 Composition (%) / Anacardic Acid 15:2 concentration / Anacardic Acid 15:3 Composition (%) / Anacardic Acid 15:3 concentration / Cardanol 15:1 Composition (%) / Cardanol 15:1 concentration / Cardanol 15:2 Composition (%) / Cardanol 15:2 concentration / Cardanol 15:3 Composition (%) / Cardanol 15:3 concentration: silica composition 1% by weight in feed;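 further: ethyl acetate extract of test feed analysed by reversed-phase C18 HPLC with absorbance detection at 280 nm, giving component composition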
Protocol: The analysis was carried out under the conditions of a solvent composition of acetonitrile: water: acetic acid =80:20:1 (based on volume), a flow rate of 2 ml/min, a temperature of 25° C., and an absorbance of 280 nm.
Samples were taken from the beakers after 3 days and analyzed for composition by HPLC.
For HPLC analysis, soluble fractions of the test feed was extracted with ethyl acetate and then filtered and dried to concentrate it to 5 mg/ml.

O=P(O)(O)O [Phosphoric Acid, phosphoric acid]
Anacardic Acid 15:1 Composition (%) ([1]; Day 0): 40.20% | Anacardic Acid 15:1 concentration ([1]; Day 0): 563.78 ppm | Anacardic Acid 15:2 Composition (%) ([1]; Day 0): 14.00% | Anacardic Acid 15:2 concentration ([1]; Day 0): 196.40 ppm | Anacardic Acid 15:3 Composition (%) ([1]; Day 0): 32.21% | Anacardic Acid 15:3 concentration ([1]; Day 0): 451.72 ppm | Cardanol 15:1 Composition (%) ([1]; Day 0): 5.74% | Cardanol 15:1 concentration ([1]; Day 0): 80.56 ppm | Cardanol 15:2 Composition (%) ([1]; Day 0): 2.45% | Cardanol 15:2 concentration ([1]; Day 0): 34.39 ppm | Cardanol 15:3 Composition (%) ([1]; Day 0): 5.39% | Cardanol 15:3 concentration ([1]; Day 0): 75.66 ppm | Anacardic Acid 15:1 Composition (%) ([1]; Day 3): 38.30% | Anacardic Acid 15:1 concentration ([1]; Day 3): 496.13 ppm | Anacardic Acid 15:2 Composition (%) ([1]; Day 3): 13.34% | Anacardic Acid 15:2 concentration ([1]; Day 3): 172.83 ppm | Anacardic Acid 15:3 Composition (%) ([1]; Day 3): 30.69% | Anacardic Acid 15:3 concentration ([1]; Day 3): 397.52 ppm | Cardanol 15:1 Composition (%) ([1]; Day 3): 7.46% | Cardanol 15:1 concentration ([1]; Day 3): 96.68 ppm | Cardanol 15:2 Composition (%) ([1]; Day 3): 3.19% | Cardanol 15:2 concentration ([1]; Day 3): 41.27 ppm | Cardanol 15:3 Composition (%) ([1]; Day 3): 7.01% | Cardanol 15:3 concentration ([1]; Day 3): 90.79 ppm | inhibition of the decarboxylation [1]: significant inhibition | Anacardic Acid 15:1 Composition (%) ([2]; Day 0): 32.73% | Anacardic Acid 15:1 concentration ([2]; Day 0): 978 ppm | Anacardic Acid 15:2 Composition (%) ([2]; Day 0): 18.69% | Anacardic Acid 15:2 concentration ([2]; Day 0): 559 ppm | Anacardic Acid 15:3 Composition (%) ([2]; Day 0): 42.99% | Anacardic Acid 15:3 concentration ([2]; Day 0): 1285 ppm | Cardanol 15:1 concentration ([2]; Day 0): 46 ppm | Cardanol 15:2 Composition (%) ([2]; Day 0): 1.26% | Cardanol 15:2 concentration ([2]; Day 0): 38 ppm | Cardanol 15:3 Composition (%) ([2]; Day 0): 2.78% | Cardanol 15:3 concentration ([2]; Day 0): 83 ppm | Anacardic Acid 15:1 Composition (%) ([2]; Day 3): 32.55% | Anacardic Acid 15:1 concentration ([2]; Day 3): 968 ppm | Anacardic Acid 15:2 Composition (%) ([2]; Day 3): 18.61% | Anacardic Acid 15:2 concentration ([2]; Day 3): 554 ppm | Anacardic Acid 15:3 Composition (%) ([2]; Day 3): 42.80% | Anacardic Acid 15:3 concentration ([2]; Day 3): 1273 ppm | Cardanol 15:1 concentration ([2]; Day 3): 46 ppm | Cardanol 15:2 Composition (%) ([2]; Day 3): 1.41% | Cardanol 15:2 concentration ([2]; Day 3): 42 ppm | Cardanol 15:3 Composition (%) ([2]; Day 3): 3.10% | Cardanol 15:3 concentration ([2]; Day 3): 92 ppm | inhibition of the decarboxylation [2]: significant inhibition | stability of the shell liquid in the feed (progress of the decarboxylation) ([3]; in feed, 3 days): stable in the feed without progress of the decarboxylation | Anacardic Acid 15:1 Composition (%) ([3]; Day 0): 40.28% | Anacardic Acid 15:1 concentration ([3]; Day 0): 363.92 ppm | Anacardic Acid 15:2 Composition (%) ([3]; Day 0): 13.76% | Anacardic Acid 15:2 concentration ([3]; Day 0): 124.28 ppm | Anacardic Acid 15:3 Composition (%) ([3]; Day 0): 33.11% | Anacardic Acid 15:3 concentration ([3]; Day 0): 299.13 ppm | Cardanol 15:1 Composition (%) ([3]; Day 0): 5.39% | Cardanol 15:1 concentration ([3]; Day 0): 48.69 ppm | Cardanol 15:2 Composition (%) ([3]; Day 0): 2.31% | Cardanol 15:2 concentration ([3]; Day 0): 20.83 ppm | Cardanol 15:3 Composition (%) ([3]; Day 0): 5.15% | Cardanol 15:3 concentration ([3]; Day 0): 46.52 ppm | Anacardic Acid 15:1 Composition (%) ([3]; Day 3): 39.75% | Anacardic Acid 15:1 concentration ([3]; Day 3): 345.72 ppm | Anacardic Acid 15:2 Composition (%) ([3]; Day 3): 13.57% | Anacardic Acid 15:2 concentration ([3]; Day 3): 118.06 ppm | Anacardic Acid 15:3 Composition (%) ([3]; Day 3): 32.67% | Anacardic Acid 15:3 concentration ([3]; Day 3): 284.18 ppm | Cardanol 15:1 Composition (%) ([3]; Day 3): 5.88% | Cardanol 15:1 concentration ([3]; Day 3): 51.13 ppm | Cardanol 15:2 Composition (%) ([3]; Day 3): 2.51% | Cardanol 15:2 concentration ([3]; Day 3): 21.87 ppm | Cardanol 15:3 Composition (%) ([3]; Day 3): 5.62% | Cardanol 15:3 concentration ([3]; Day 3): 48.85 ppm

O=P([O-])(O)O.[Na+] [Sodium Dihydrogen Phosphate, sodium dihydrogen phosphate]
Anacardic Acid 15:1 Composition (%) ([1]; Day 0): 40.20% | Anacardic Acid 15:1 concentration ([1]; Day 0): 563.78 ppm | Anacardic Acid 15:2 Composition (%) ([1]; Day 0): 14.00% | Anacardic Acid 15:2 concentration ([1]; Day 0): 196.40 ppm | Anacardic Acid 15:3 Composition (%) ([1]; Day 0): 32.21% | Anacardic Acid 15:3 concentration ([1]; Day 0): 451.72 ppm | Cardanol 15:1 Composition (%) ([1]; Day 0): 5.74% | Cardanol 15:1 concentration ([1]; Day 0): 80.56 ppm | Cardanol 15:2 Composition (%) ([1]; Day 0): 2.45% | Cardanol 15:2 concentration ([1]; Day 0): 34.39 ppm | Cardanol 15:3 Composition (%) ([1]; Day 0): 5.39% | Cardanol 15:3 concentration ([1]; Day 0): 75.66 ppm | Anacardic Acid 15:1 Composition (%) ([1]; Day 3): 32.90% | Anacardic Acid 15:1 concentration ([1]; Day 3): 502.26 ppm | Anacardic Acid 15:2 Composition (%) ([1]; Day 3): 11.28% | Anacardic Acid 15:2 concentration ([1]; Day 3): 172.11 ppm | Anacardic Acid 15:3 Composition (%) ([1]; Day 3): 25.93% | Anacardic Acid 15:3 concentration ([1]; Day 3): 395.86 ppm | Cardanol 15:1 Composition (%) ([1]; Day 3): 13.16% | Cardanol 15:1 concentration ([1]; Day 3): 200.81 ppm | Cardanol 15:2 Composition (%) ([1]; Day 3): 5.23% | Cardanol 15:2 concentration ([1]; Day 3): 79.82 ppm | Cardanol 15:3 Composition (%) ([1]; Day 3): 11.50% | Cardanol 15:3 concentration ([1]; Day 3): 175.60 ppm | inhibition of the decarboxylation [1]: moderate inhibition | Anacardic Acid 15:1 Composition (%) ([2]; Day 0): 39.93% | Anacardic Acid 15:1 concentration ([2]; Day 0): 1103 ppm | Anacardic Acid 15:2 Composition (%) ([2]; Day 0): 14.10% | Anacardic Acid 15:2 concentration ([2]; Day 0): 389 ppm | Anacardic Acid 15:3 Composition (%) ([2]; Day 0): 32.43% | Anacardic Acid 15:3 concentration ([2]; Day 0): 896 ppm | Cardanol 15:1 Composition (%) ([2]; Day 0): 5.46% | Cardanol 15:1 concentration ([2]; Day 0): 151 ppm | Cardanol 15:2 Composition (%) ([2]; Day 0): 2.52% | Cardanol 15:2 concentration ([2]; Day 0): 70 ppm | Cardanol 15:3 Composition (%) ([2]; Day 0): 5.55% | Cardanol 15:3 concentration ([2]; Day 0): 153 ppm | Anacardic Acid 15:1 Composition (%) ([2]; Day 3): 30.94% | Anacardic Acid 15:1 concentration ([2]; Day 3): 964 ppm | Anacardic Acid 15:2 Composition (%) ([2]; Day 3): 10.81% | Anacardic Acid 15:2 concentration ([2]; Day 3): 337 ppm | Anacardic Acid 15:3 Composition (%) ([2]; Day 3): 24.87% | Anacardic Acid 15:3 concentration ([2]; Day 3): 774 ppm | Cardanol 15:1 Composition (%) ([2]; Day 3): 14.32% | Cardanol 15:1 concentration ([2]; Day 3): 446 ppm | Cardanol 15:2 Composition (%) ([2]; Day 3): 5.95% | Cardanol 15:2 concentration ([2]; Day 3): 185 ppm | Cardanol 15:3 Composition (%) ([2]; Day 3): 13.10% | Cardanol 15:3 concentration ([2]; Day 3): 408 ppm | inhibition of the decarboxylation [2]: moderate inhibition
